# Results published in BindingDB's records for doi:10.1021/jm970104t (Boehringer Ingelheim, 1998).
# Where a SMILES comes first, the peptide text is derived from it. [ ]: non-standard residue; d: D form. The star is where a group is joined. ξ: configuration not given here. Tle = CC(C)(C)[C@H](N)C(=O)O; ξNva = CCCC(N)C(=O)O; ξA = CC(N)C(=O)O; CF3 = FC(F)(F)*
# Target: HCMV protease (Human cytomegalovirus)
# Experiment: Micro molar potency to inhibit human cytomegalovirus (HCMV) protease
row,IC50 [µM],Compound
1,> 300,"CCCC(NC(=O)[C@H](CC(N)=O)NC(=O)[C@@H](NC(=O)[C@@H](NC(C)=O)C(C)C)C(C)C)C(=O)C(F)(F)F (stereo partly drawn) [(S)-2-[(S)-2-((S)-2-Acetylamino-3-methyl-butyrylamino)-3-methyl-butyrylamino]-N*1*-[1-(2,2,2-trifluoro-acetyl)-butyl]-succinamide] (Ac-VVN[ξNva]-CF3)"
2,0.6,"Cc1ccc2nc(C(=O)C(C)NC(=O)[C@H](CC(=O)N(C)C)NC(=O)[C@@H](NC(=O)CC(C)(C)C)C(C)(C)C)oc2c1 (stereo partly drawn) [(S)-2-[(S)-2-(3,3-Dimethyl-butyrylamino)-3,3-dimethyl-butyrylamino]-N*4*,N*4*-dimethyl-N*1*-[1-methyl-2-(6-methyl-benzooxazol-2-yl)-2-oxo-ethyl]-succinamide]"
3,20,"CC(NC(=O)[C@H](CC(=O)N(C)C)NC(=O)[C@@H](O)C(C)(C)C)C(=O)C(F)(F)F (stereo partly drawn) [(S)-2-((S)-2-Hydroxy-3,3-dimethyl-butyrylamino)-N*4*,N*4*-dimethyl-N*1*-(3,3,3-trifluoro-1-methyl-2-oxo-propyl)-succinamide]"
4,12,"CC(NC(=O)[C@H](CC(=O)N(C)C)NC(=O)[C@@H](N)C(C)(C)C)C(=O)C(F)(F)F (stereo partly drawn) [(S)-2-((S)-2-Amino-3,3-dimethyl-butyrylamino)-N*4*,N*4*-dimethyl-N*1*-(3,3,3-trifluoro-1-methyl-2-oxo-propyl)-succinamide] (H-[Tle]-Asp(NMe2)-[ξA]-CF3)"
5,33,"CN(C)C(=O)C[C@H](NC(=O)[C@@H](NC(=O)CC(C)(C)C)C(C)(C)C)C(=O)N[C@H]1CN(OCc2ccccc2)C1=O [(S)-N*1*-((S)-1-Benzyloxy-2-oxo-azetidin-3-yl)-2-[(S)-2-(3,3-dimethyl-butyrylamino)-3,3-dimethyl-butyrylamino]-N*4*,N*4*-dimethyl-succinamide]"
6,> 300,"CC(NC(=O)[C@H](CC(=O)N(C)C)NC(=O)[C@@H](NC(=O)CC(C)(C)C)C(C)(C)C)C(=O)C(=O)N(C)C (stereo partly drawn) [(S)-2-[(S)-2-(3,3-Dimethyl-butyrylamino)-3,3-dimethyl-butyrylamino]-N*1*-(2-dimethylcarbamoyl-1-methyl-2-oxo-ethyl)-N*4*,N*4*-dimethyl-succinamide]"
